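Tested at 5 concentrations; 48 h exposure; 96-well plates; endpoints linearly interpolated, else capped at highest concentration. Here, GI50 denotes the concentration required for 50% inhibition of growth.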 Calls of active or inactive are those of the source. Cut-off read from the data, not from the text of the source: active = GI50 up to about 1.1 µM and inactive = higher.
Tests used:
Assay in all cases: growth of human tumour cells (NCI), 48 h
HCC 2998 = system: HCC 2998
LOX IMVI = system: LOX IMVI
HOP-92 = system: HOP-92
M19-MEL = system: M19-MEL
RPMI-8226 = system: RPMI-8226
NCI-H460 = system: NCI-H460
HCT-15 = system: HCT-15
SF-268 = system: SF-268
A498 = system: A498
NCI-H522 = system: NCI-H522
OVCAR-8 = system: OVCAR-8
SF-295 = system: SF-295
CCRF-CEM = system: CCRF-CEM
NCI-H23 = system: NCI-H23
UACC-257 = system: UACC-257
SNB-75 = system: SNB-75
RXF 393 = system: RXF 393

For `CCOC(=O)/C(=C/c1ccc(OC)cc1)N(CC)CC`, the GI50 (HCC 2998) was > 100 µM (inactive), the GI50 (LOX IMVI) was > 100 µM (inactive) and the GI50 (HOP-92) was > 100 µM (inactive). For the same compound, the GI50 (M19-MEL) was > 100 µM (inactive), the GI50 (RPMI-8226) was > 100 µM (inactive) and the GI50 (NCI-H460) was > 100 µM (inactive). The GI50 (HCT-15) was > 100 µM, the GI50 (SF-268) was > 100 µM (inactive) and the GI50 (A498) was 24.5 µM (inactive). For the same compound, the GI50 (NCI-H522) was > 100 µM (inactive), the GI50 (OVCAR-8) was > 100 µM (inactive) and the GI50 (SF-295) was > 100 µM (inactive). The GI50 (CCRF-CEM) was > 100 µM (inactive), the GI50 (NCI-H23) was > 100 µM (inactive) and the GI50 (UACC-257) was > 100 µM (inactive).

With `N[C@H](C(=O)O)[C@H](Cl)CC(=O)O` the GI50 (SNB-75) was > 100 µM (inactive), the GI50 (HCC 2998) was > 100 µM (inactive) and the GI50 (LOX IMVI) was > 100 µM (inactive). For the same compound, the GI50 (HOP-92) was > 100 µM (inactive), the GI50 (M19-MEL) was > 100 µM (inactive) and the GI50 (RXF 393) was > 100 µM (inactive). The GI50 (NCI-H460) was > 100 µM (inactive), the GI50 (HCT-15) was > 100 µM and the GI50 (SF-268) was > 100 µM (inactive). For the same compound, the GI50 (A498) was > 100 µM (inactive), the GI50 (NCI-H522) was > 100 µM (inactive) and the GI50 (OVCAR-8) was > 100 µM (inactive). For the same compound, the GI50 (SF-295) was > 100 µM (inactive), the GI50 (CCRF-CEM) was > 100 µM (inactive) and the GI50 (NCI-H23) was > 100 µM (inactive). For the same compound, the GI50 (UACC-257) was > 100 µM (inactive).

For `COC(=O)C1C(OCc2ccccc2)C2CCC1(OC)C=C2C` (stereo not given), the GI50 (SNB-75) was > 100 µM (inactive), the GI50 (HCC 2998) was 62.5 µM (inactive) and the GI50 (LOX IMVI) was > 68.7 µM (inactive). For the same compound, the GI50 (HOP-92) was > 100 µM (inactive), the GI50 (M19-MEL) was > 58.3 µM (inactive) and the GI50 (RXF 393) was 54.3 µM (inactive). The GI50 (RPMI-8226) was 23.6 µM (inactive), the GI50 (NCI-H460) was > 100 µM (inactive) and the GI50 (HCT-15) was > 89.3 µM. For the same compound, the GI50 (SF-268) was > 100 µM (inactive), the GI50 (A498) was > 100 µM (inactive) and the GI50 (NCI-H522) was 29.4 µM (inactive). The GI50 (OVCAR-8) was > 84.9 µM (inactive), the GI50 (SF-295) was > 79.6 µM (inactive) and the GI50 (CCRF-CEM) was 26.9 µM (inactive). For the same compound, the GI50 (NCI-H23) was > 88.5 µM (inactive) and the GI50 (UACC-257) was 42.8 µM (inactive).

With `c1ccc2c(c1)cc(C1NCCc3nc[nH]c31)c1ccccc12` (stereo not given) the GI50 (SNB-75) was 32.7 µM (inactive), the GI50 (HCC 2998) was 15.7 µM (inactive) and the GI50 (LOX IMVI) was 19.8 µM (inactive). For the same compound, the GI50 (HOP-92) was > 44.4 µM (inactive), the GI50 (M19-MEL) was 29.6 µM (inactive) and the GI50 (RXF 393) was 31.7 µM (inactive). The GI50 (RPMI-8226) was 37.6 µM (inactive), the GI50 (NCI-H460) was 22.6 µM (inactive) and the GI50 (HCT-15) was 59.6 µM. For the same compound, the GI50 (SF-268) was 77.1 µM (inactive), the GI50 (A498) was 22.5 µM (inactive) and the GI50 (NCI-H522) was 27.7 µM (inactive). The GI50 (OVCAR-8) was > 68.9 µM (inactive), the GI50 (SF-295) was 56.2 µM (inactive) and the GI50 (CCRF-CEM) was 27.2 µM (inactive). The GI50 (NCI-H23) was > 100 µM (inactive) and the GI50 (UACC-257) was 31 µM (inactive).

With `[N-]=[N+]=NC1(c2ccccc2)C(=O)C(Cl)=C(c2ccccc2)N(c2ccccc2)C1=O` (stereo not given) the GI50 (SNB-75) was > 100 µM (inactive), the GI50 (HCC 2998) was > 100 µM (inactive) and the GI50 (LOX IMVI) was > 100 µM (inactive). For the same compound, the GI50 (HOP-92) was > 100 µM (inactive), the GI50 (M19-MEL) was > 100 µM (inactive) and the GI50 (NCI-H460) was > 100 µM (inactive). The GI50 (HCT-15) was > 100 µM, the GI50 (SF-268) was > 100 µM (inactive) and the GI50 (A498) was > 100 µM (inactive). For the same compound, the GI50 (NCI-H522) was 41.2 µM (inactive), the GI50 (OVCAR-8) was > 100 µM (inactive) and the GI50 (SF-295) was > 100 µM (inactive). For the same compound, the GI50 (CCRF-CEM) was 59.7 µM (inactive), the GI50 (NCI-H23) was 64.9 µM (inactive) and the GI50 (UACC-257) was > 100 µM (inactive).

`O=C(CCc1n[nH]c(=S)o1)Nc1ccc(Cl)cc1Cl` was tested, and the GI50 (SNB-75) was > 100 µM (inactive), the GI50 (HCC 2998) was > 100 µM (inactive) and the GI50 (HOP-92) was 68.7 µM (inactive). The GI50 (M19-MEL) was > 100 µM (inactive), the GI50 (RPMI-8226) was 16.9 µM (inactive) and the GI50 (NCI-H460) was > 100 µM (inactive). The GI50 (HCT-15) was 20.9 µM, the GI50 (SF-268) was > 100 µM (inactive) and the GI50 (A498) was > 100 µM (inactive). For the same compound, the GI50 (NCI-H522) was 61.8 µM (inactive), the GI50 (OVCAR-8) was > 100 µM (inactive) and the GI50 (SF-295) was > 100 µM (inactive). The GI50 (CCRF-CEM) was 43.6 µM (inactive), the GI50 (NCI-H23) was > 100 µM (inactive) and the GI50 (UACC-257) was > 100 µM (inactive).

Reference: ChEMBL document CHEMBL1201862, “PubChem BioAssay data set” (2004)
